# In US20160031909A1, “PORPHYRAZINE OPTICAL AND DUAL OPTICAL/ MR CONTRAST AND THERAPEUTIC AGENTS” (HOFFMAN/BARRETT, LLC, priority 2013, published 2016):
# Values joined by “and” are separate entries in the source; they are usually repeats but may differ in a detail not shown here. Identical values can stand only once. “Also recorded” adds a separate entry of the source.
# Legend:
# [1] = system: MDA-MB-231 orthotopic breast tumor; assay: In vivo tumor MRI in orthotopic breast tumor model; parameters: species or system athymic nude mice
# Description: Cu-Pz-Gd(III) was examined as a contrast agent in vivo in an orthotopic breast tumor model in athymic nude mice. MDA-MB-231 breast tumor cells expressing mCherry fluorescent protein were implanted in the mammary fat pad of mice and tumors were allowed to grow to about 5 mm in diameter at which time mice were treated with 450 nmol (50 mg/kg) Cu-Pz-Gd(III) together with saline treated control mice (FIG. 3A).
# In a separate experiment focusing only on short time points (0-225 min), groups of mice (n=3) were treated with Cu-Pz-Gd(III) (450 nmol, 50 mg/kg), DOTA-Gd(I I I) (900 nmol, 25 mg/kg), and saline as a negative control (FIG. 4). Mice were imaged continuously after tail vein injections. […] Regions of interest (ROIs) were defined outside the periphery of tumors, at the inner rim, and at the center.
# MDA-MB-231 cells (1×10^6) expressing mCherry fluorescent protein were inoculated subcutaneously (1:1 v/v matrigel:PBS) on the right mammary fat pad. Cells were maintained in DMEM media supplemented with 10% FBS prior to inoculation. The athymic nude mice, Crl:NU(NCr)-Foxnl^nm, were purchased from Charles River, Portage at 5-6 weeks old and 16-18 gram were allowed to acclimate for 5 days. One week post inoculation, each animal was screened for mCherry fluorescence wavelength using the IVIS small animal fluorescence imaging system to verify presence of the tumor.
# Mice were anesthetized in an induction chamber with 3% inhaled isoflurane in oxygen, then transferred to an imaging bed with circulating warm water heating system, MRI compatible respiratory monitoring (SA Instruments, Stony Brook, N.Y.) and 1-2% isoflurane delivered via nosecone to maintain a surgical plane of anesthesia with respiratory rate at 90-100 breaths/min Mice were imaged prone with the tumor centered in a 40 mm diameter quadrature volume coil (Bruker Biospec, Billerica, Mass.). An AutoPac automated positioning system was used to reproducibly center the animals in the MRI system.
# Mice were positioned in the MRI scanner as described above and localizer images were acquired. T1 maps were acquired using a FAIR-RARE non-selective inversion recovery sequence with static TR (18,000 ms) and TE (6.1 ms), and variable TI (30.5, 100, 200, 300, 500, 600, 700, 800, 900, 1000, 1100, 1200, 1300, 1400, 1600, 2000, 2500, 3000, 3500, 4000, 4500, 5000, and 6000 ms). Imaging parameters were as follows: field of view (FOV)=40×20 mm^2, matrix size(MTX)=512×133 pixels, number of slices=1, slice thickness=1.0 mm, and 1 average (total scan time=5 m 26 s).
# Images were acquired at baseline, and 4, 24, and 48 hours after injection of 150 μL of imaging agent via the tail vein. One control animal was injected with saline; the remaining 9 animals were injected with 450 nmol Cu-Pz-Gd(III). Three animals were sacrificed after 4 hour, 24 hour, and 48 hour timepoints, respectively; the organs were collected for ICP-MS (described below) to measure biodistribution.
# Mice were positioned in the MRI scanner as described above and localizer images were acquired. To improve signal to noise ratio, reduce respiratory artifacts, and increase tumor coverage, for this study we used a multi slice T1 map acquired using a variable repetition time saturation recovery sequence (RARE-VTR) with static TE (8.2 ms) and variable TR (175, 300, 600, 800, 1200, 2000, 4000 ms). Imaging parameters were as follows: FOV=10×7.5 mm, MTX=80×60, number of axial slices=5, slice thickness=1.0 mm, and 1 average (total scan time=6 min 48 sec). […]
# MDA-MB-231 cells = assay: MR imaging of cell pellets at 9.4 T; type: cell-based
# Description: To determine whether the cellular uptake and molecular relativity of Cu-Pz-Gd(III) provides an effective MR contrast agent, MDA-MB-231 breast tumor cells were treated with M-Pz-Gd(III) complexes (200 μM) and centrifuged into capillaries (about 1.0 mm diameter) prior to MR imaging. […] The amount of Gd(III) per cell was determined by ICP-MS for each pellet and, as expected, T1 is inversely proportional to Gd(III) content. (FIG. 2B).
# 9.4 T MR imaging and T1/T2 measurements were performed on a Bruker Biospec 9.4 T imaging spectrometer fitted with shielded gradient coils at 25° C. For cell pellets images, about 2.0×10^6 MDA-MB-231 cells were incubated in 25-cm^2 T-flasks with either Cu-Pz-Gd(III), Zn-Pz-Gd(III) or DOTA-Gd(III) (400 μM wrt Gd(III)) for 24 hours, rinsed with DPBS (3×5 mL/flask), and harvested with 500 μL, of a 0.25-vol % trypLE Express solution. […] The bottom sections of the flame-sealed pipets were then scored with a glass scribe, broken into small capillaries, then imaged using a RF RES 400 1H 089/038 quadrature transmit receive 23-mm volume coil (Bruker BioSpin, Billerica, Mass., USA).
# Spin-lattice relaxation times (T1) were measured using a […] (RARE-VTR) T1-map pulse sequence, with static TE (10 ms) and variable TR (100, 200, 400, 500, 750, 1000, 2500, 5000, 7500, and 10000 ms) values. […]
substance,measurement,setting,value
"Cu[Pz(C19H28N8O7Gd)2]. Pz=18,21-bis(2-(1H-1,2,3-triazole-4-yl) ethoxy)-tris-[1,4-dioxino[g,l,q](2R,3R)-2,3-dimethoxy-2,3-dimethyll 25H,27H-benzo[b]porphyrazine; C19H28N8O7Gd=N-methyl-2-aminoacetamide-4,7,10-tris(carboxymethyl)-1,4,7,10-tetraazacyclododecylgadolinium(III)) [Cu-Pz-Gd(III)]",tumor T1 over time,"[1]; 0-225 min after tail vein injection, Cu-Pz-Gd(III) 450 nmol (50 mg/kg), DOTA-Gd(III) 900 nmol (25 mg/kg)",persistent; also recorded: becomes progressively shorter; also recorded: steady accumulation of Cu-Pz-Gd(III) in tumor tissue with greater accumulation in the necrotic core; also recorded: decrease in T1 is much more persistent
same,MR contrast enhancement of tumors,"[1]; 450 nmol (50 mg/kg), 4 hour timepoint",significant contrast enhancement
same,time at which T1 of tumor center is roughly equivalent to the rim,"[1]; 450 nmol, 50 mg/kg",135 min
same,average T1 of tumor regions,"[1]; 50 mg/kg, relative to saline treated controls",decreased relative to saline-treated controls; also recorded: decreased relative to saline treated controls
same,MR image intensity of cell pellets,"MDA-MB-231 cells; MDA-MB-231, 200 μM, vs Zn-Pz-Gd(III), DOTA-Gd(III) or vehicle",significant increases in image intensity
same,contrast to noise ratio (CNR),"MDA-MB-231 cells; MDA-MB-231 cell pellets, 200 μM complex (400 μM wrt Gd(III)), 24 hours, 9.4 T, 25° C.",9.336±0.335 and 9.336
